Results reported in US4307094A, “Triazolopyridazine derivatives” (Hoffmann-La Roche Inc., priority 1979, dated 1981).

These compounds were tested against T1, angiotensin converting enzyme (Oryctolagus cuniculus, UniProt P12822) (assay: inhibition of angiotensin converting enzyme in vitro (cleavage of hippuryl-histidyl-leucine)). Conditions: substrate hippuryl-histidyl-leucine 2 mM, potassium phosphate buffer pH 8.3 (100 mM), NaCl 300 mM, 25 minutes, 37° C.
T1 sequence (P12822 34-1310): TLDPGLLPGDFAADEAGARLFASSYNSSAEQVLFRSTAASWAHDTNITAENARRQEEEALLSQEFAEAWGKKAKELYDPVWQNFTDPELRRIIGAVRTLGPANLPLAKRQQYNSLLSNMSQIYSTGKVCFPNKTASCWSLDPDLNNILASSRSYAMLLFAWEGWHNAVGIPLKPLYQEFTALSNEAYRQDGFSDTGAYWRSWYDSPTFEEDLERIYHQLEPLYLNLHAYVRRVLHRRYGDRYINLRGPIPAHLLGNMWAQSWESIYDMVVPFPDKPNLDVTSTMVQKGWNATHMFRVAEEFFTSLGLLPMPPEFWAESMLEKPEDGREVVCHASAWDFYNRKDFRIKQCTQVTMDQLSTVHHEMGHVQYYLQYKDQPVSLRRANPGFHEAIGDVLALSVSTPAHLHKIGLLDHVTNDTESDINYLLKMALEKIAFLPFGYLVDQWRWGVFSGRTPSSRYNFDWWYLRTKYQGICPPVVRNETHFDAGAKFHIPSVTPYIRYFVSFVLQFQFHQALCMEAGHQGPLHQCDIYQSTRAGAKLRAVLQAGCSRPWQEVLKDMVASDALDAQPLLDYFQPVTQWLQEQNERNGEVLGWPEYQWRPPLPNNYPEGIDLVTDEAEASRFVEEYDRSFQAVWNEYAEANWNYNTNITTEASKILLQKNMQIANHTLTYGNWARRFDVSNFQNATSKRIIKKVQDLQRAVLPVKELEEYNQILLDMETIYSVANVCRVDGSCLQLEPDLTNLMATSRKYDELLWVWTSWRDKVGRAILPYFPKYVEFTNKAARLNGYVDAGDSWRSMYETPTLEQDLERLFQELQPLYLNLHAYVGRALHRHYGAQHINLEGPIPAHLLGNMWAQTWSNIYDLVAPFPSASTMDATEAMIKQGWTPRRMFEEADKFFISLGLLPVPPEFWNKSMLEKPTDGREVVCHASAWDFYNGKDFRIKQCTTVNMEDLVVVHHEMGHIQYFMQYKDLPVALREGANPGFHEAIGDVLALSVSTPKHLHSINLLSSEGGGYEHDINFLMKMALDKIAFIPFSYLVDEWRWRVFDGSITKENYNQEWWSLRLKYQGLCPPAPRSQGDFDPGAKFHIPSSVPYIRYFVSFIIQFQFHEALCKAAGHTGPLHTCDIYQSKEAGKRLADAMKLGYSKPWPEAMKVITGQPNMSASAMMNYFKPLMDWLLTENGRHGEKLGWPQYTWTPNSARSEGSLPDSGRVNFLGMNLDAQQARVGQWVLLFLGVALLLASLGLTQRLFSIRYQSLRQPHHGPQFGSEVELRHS
Assay type: biochemical
Procedure: The activity of the present triazolopyridazine derivatives in inhibiting angiotensin converting enzyme in vitro can be determined by the following test.
The method used is based on the method of Cushman and Cheung (Biochem. Pharmacol., 20, 1637-1648) incorporating the modifications introduced by Hayakari et al. (Anal. Biochem., 84, 361-369). The substrate (hippuryl-histidyl-leucine, 2 mM) is incubated with angiotensin converting enzyme in the presence or absence of various concentrations of test substance in potassium phosphate buffer (pH 8.3; 100 mM) containing sodium chloride (300 mM) for 25 minutes at 37° C. (total […] 500 μl). The reaction is terminated by the addition of 3 ml of potassium phosphate buffer (pH 8.3; 200 mM) at 0° C. 2,4,6-trichloro-s-triazine (3%) in 1.5 ml of dioxan is added, and the mixture is agitated until the yellow chromophore has developed fully. The samples are then centrifuged to remove any precipitate which has formed. The yellow chromophore formed by the reaction of the 2,4,6-trichloro-s-triazine with free hippuric acid is measured spectrophotometrically at 382 nm. IC50 values are defined as the concentration of test substance which reduces by 50% the cleavage of hippuryl-histidyl-leucine by angiotensin converting enzyme under the aforementioned conditions.

| IC50 | SMILES |
| --- | --- |
| 18 µM | O=C(O)CCn1c(=O)n2n(c1=O)C(C(=O)O)C=CC2 (stereo not shown) [Compound A, 5-carboxy-2,3,5,8-tetrahydro-1,3-dioxo-1H-1,2,4-triazolo[1,2-a]pyridazine-2-propionic acid] |
| 3.3 µM | O=C(CCn1c(=O)n2n(c1=O)C(C(=O)O)C=CC2)NO (stereo not shown) [Compound C, 2-[2-(N-hydroxycarbamoyl)ethyl]-2,3,5,8-tetrahydro-1,3-dioxo-1H-1,2,4-triazolo[1,2-a]pyridazine-5-carboxylic acid] |
| 65 µM | NC(=O)CCn1c(=O)n2n(c1=O)C(C(=O)O)C=CC2 (stereo not shown) [Compound B, 2-(2-carbamoylethyl)-2,3,5,8-tetrahydro-1,3-dioxo-1H-1,2,4-triazolo[1,2-a]-pyridazine-5-carboxylic acid] |
| 0.48 µM | O=C(O)C1C=CCn2c(=O)n(CCS)c(=O)n21 (stereo not shown) [Compound D, 2,3,5,8-tetrahydro-2-(2-mercaptoethyl)-1,3-dioxo-1H-1,2,4-triazolo[1,2-a]pyridazine-5-carboxylic acid] |
